Source: ChEMBL document CHEMBL1909046, “DrugMatrix in vitro pharmacology data”

What was measured:
[1] = molecular target: Beta-2 adrenergic receptor (Homo sapiens, UniProt P07550); test: DRUGMATRIX: Adrenergic beta2 radioligand binding (ligand: [3H] CGP-12177); format: cell membranes, CHO, Membrane; conditions: Not Active = under 50% inhibition at 10 µM
[2] = molecular target: T1, 3-hydroxy-3-methylglutaryl-coenzyme A reductase (Homo sapiens, UniProt P04035); set-up: species or system Escherichia coli;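 further: enzyme inhibition assay of HMG-CoA reductase using radiolabeled [14C]HMG-CoA as substrate; in other assays of this panel Not Active means under 50% inhibition at 10 µM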
T1 sequence (P04035 whole entry): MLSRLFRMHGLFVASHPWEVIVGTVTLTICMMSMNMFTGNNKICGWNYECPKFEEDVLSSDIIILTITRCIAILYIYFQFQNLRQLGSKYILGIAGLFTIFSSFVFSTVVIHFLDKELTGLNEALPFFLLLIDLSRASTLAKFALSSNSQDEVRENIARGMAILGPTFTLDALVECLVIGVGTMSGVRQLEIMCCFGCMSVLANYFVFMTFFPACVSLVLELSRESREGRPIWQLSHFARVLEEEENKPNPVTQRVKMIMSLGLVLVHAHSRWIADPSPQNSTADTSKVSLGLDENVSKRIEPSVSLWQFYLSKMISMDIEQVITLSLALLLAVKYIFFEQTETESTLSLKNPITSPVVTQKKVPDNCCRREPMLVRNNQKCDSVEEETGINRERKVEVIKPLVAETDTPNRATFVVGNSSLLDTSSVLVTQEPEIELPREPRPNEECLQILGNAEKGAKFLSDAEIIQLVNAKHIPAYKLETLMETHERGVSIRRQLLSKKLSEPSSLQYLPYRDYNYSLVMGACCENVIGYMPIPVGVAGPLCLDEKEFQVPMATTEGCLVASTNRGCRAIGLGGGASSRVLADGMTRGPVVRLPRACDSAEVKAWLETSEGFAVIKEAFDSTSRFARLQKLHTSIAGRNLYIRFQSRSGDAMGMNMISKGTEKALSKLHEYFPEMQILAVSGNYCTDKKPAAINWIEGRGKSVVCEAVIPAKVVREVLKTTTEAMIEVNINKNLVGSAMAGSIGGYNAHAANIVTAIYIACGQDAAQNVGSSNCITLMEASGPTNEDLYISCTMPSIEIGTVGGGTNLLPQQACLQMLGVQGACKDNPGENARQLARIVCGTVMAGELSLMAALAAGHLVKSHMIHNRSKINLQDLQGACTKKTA

[3] = molecular target: Insulin receptor (Rattus norvegicus, UniProt P15127); format: cell membranes, Wistar, Liver, Membrane; further: in other assays of this panel Not Active means under 50% inhibition at 10 µM
Chain of Insulin receptor (P15127 27-759 limits assumed): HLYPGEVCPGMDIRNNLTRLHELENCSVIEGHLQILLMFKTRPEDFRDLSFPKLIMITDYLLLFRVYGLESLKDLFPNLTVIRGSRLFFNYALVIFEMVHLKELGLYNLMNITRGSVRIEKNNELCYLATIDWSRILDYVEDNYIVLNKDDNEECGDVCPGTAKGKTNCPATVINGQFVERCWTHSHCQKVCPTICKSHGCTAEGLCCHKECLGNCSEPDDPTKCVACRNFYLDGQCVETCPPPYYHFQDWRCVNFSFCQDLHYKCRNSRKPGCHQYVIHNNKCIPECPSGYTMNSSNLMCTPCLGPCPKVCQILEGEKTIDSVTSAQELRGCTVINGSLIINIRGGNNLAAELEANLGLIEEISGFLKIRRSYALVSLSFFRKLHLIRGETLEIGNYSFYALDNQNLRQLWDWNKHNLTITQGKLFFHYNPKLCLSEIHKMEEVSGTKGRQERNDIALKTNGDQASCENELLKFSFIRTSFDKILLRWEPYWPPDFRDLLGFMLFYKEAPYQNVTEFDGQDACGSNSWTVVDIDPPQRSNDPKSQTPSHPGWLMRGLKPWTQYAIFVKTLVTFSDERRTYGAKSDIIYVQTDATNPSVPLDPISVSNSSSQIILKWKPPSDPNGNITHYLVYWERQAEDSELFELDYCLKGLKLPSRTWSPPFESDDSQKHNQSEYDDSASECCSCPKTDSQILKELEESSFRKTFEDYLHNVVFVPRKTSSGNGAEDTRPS
Chain of Insulin receptor (P15127 764-1383 limits assumed): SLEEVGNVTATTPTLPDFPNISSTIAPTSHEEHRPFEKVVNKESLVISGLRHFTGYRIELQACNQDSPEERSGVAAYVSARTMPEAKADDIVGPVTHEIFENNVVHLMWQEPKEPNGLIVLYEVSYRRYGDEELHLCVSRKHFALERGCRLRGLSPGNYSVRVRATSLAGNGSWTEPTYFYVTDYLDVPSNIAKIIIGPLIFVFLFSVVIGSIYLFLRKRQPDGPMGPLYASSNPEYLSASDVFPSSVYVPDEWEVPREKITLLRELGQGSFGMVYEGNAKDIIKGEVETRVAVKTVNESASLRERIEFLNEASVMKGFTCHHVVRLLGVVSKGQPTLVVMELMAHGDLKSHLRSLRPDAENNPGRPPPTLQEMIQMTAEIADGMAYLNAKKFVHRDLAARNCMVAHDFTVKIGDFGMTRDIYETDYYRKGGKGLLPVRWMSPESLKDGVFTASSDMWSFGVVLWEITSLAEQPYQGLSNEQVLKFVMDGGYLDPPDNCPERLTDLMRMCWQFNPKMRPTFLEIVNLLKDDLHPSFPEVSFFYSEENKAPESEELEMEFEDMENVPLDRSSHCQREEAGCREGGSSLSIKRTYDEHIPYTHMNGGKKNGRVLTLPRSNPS

[4] = molecular target: T2, Alpha-1A adrenergic receptor (Rattus norvegicus, UniProt P43140); test: DRUGMATRIX: Alpha-1A adrenergic receptor radioligand binding (ligand: prazosin); format: cell membranes, Wistar, Submaxillary gland, Membrane; conditions: Not Active = under 50% inhibition at 10 µM
T2 sequence (P43140 whole entry): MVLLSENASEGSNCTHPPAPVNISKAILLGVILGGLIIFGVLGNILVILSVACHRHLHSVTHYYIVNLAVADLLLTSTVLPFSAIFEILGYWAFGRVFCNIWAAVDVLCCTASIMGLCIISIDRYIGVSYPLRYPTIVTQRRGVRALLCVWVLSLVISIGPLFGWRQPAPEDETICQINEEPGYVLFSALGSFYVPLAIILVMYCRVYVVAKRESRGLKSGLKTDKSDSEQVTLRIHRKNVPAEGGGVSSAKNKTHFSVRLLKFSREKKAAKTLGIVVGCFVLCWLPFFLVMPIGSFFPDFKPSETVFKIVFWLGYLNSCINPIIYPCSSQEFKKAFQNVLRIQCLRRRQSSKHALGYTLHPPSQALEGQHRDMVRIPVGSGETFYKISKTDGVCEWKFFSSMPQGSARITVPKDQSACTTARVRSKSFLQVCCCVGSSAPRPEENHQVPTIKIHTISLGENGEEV

[5] = molecular target: T3, Glucocorticoid receptor (Homo sapiens, UniProt P04150); conditions: hela s3; further: in other assays of this panel Not Active means under 50% inhibition at 10 µM
T3 sequence (P04150 whole entry): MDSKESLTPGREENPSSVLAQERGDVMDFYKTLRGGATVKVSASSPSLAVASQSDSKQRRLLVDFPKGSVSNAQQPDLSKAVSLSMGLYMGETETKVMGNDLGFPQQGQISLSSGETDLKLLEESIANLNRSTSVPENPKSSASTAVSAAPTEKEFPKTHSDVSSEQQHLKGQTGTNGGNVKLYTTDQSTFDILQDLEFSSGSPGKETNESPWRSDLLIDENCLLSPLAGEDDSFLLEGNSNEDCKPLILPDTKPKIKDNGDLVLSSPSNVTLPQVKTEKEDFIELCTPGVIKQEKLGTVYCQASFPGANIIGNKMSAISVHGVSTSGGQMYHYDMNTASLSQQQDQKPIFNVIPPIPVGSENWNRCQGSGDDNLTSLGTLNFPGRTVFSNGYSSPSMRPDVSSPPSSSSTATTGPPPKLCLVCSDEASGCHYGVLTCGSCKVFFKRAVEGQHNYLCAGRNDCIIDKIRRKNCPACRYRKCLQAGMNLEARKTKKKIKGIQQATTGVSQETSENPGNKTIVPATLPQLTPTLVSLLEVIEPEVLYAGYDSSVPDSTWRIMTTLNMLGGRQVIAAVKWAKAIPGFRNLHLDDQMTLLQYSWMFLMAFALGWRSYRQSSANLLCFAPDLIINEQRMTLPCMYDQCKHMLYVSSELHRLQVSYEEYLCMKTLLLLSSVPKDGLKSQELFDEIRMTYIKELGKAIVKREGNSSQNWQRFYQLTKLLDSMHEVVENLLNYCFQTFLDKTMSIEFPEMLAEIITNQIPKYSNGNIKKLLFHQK

Row | Molecule | IC50 ([1]; cho) | IC50 [2] | IC50 [3] | IC50 [4] | IC50 [5] | also measured
1 | CCOC(N)=O | Not Active | Not Active | Not Active | Not Active |  | 
2 | COc1ccc(CN2CCNCC2)c(OC)c1OC [TRIMETAZIDINE] | Not Active | Not Active | Not Active | Not Active | Not Active | 
3 | CC(=O)O[C@H]1C[C@@H]2CC[C@@H]3[C@H](CC[C@@]4(C)[C@H]3C[C@H]([N+]3(C)CCCCC3)[C@@H]4OC(C)=O)[C@@]2(C)C[C@@H]1N1CCCCC1.[Br-] [VECURONIUM BROMIDE] | Not Active | Not Active | Not Active | Not Active |  | 
4 | C[C@@H]1C[C@H]2[C@@H]3CCC4=CC(=O)C=C[C@]4(C)C3=CC[C@]2(C)[C@H]1C(=O)CN1CCN(c2cc(N3CCCC3)nc(N3CCCC3)n2)CC1 [TIRILAZAD] |  | Not Active | Not Active | Not Active | Not Active | IC50 ([1]; read-out: IC50): 22700 nM; Ki ([1]; read-out: Ki): 15600 nM
5 | CC(C)OC(=O)C(C)(C)Oc1ccc(C(=O)c2ccc(Cl)cc2)cc1 [FENOFIBRATE] | Not Active | Not Active | Not Active | Not Active | Not Active | 
6 | C[C@@H](O)[C@H]1C(=O)N2C(C(=O)O)=C(S[C@@H]3CN[C@H](C(=O)N(C)C)C3)[C@H](C)[C@H]12 [MEROPENEM] | Not Active | Not Active | Not Active | Not Active | Not Active | 
7 | CC[C@@H](CO)NC(=O)[C@@H]1C=C2c3cccc4c3c(cn4C)C[C@H]2N(C)C1 [METHYSERGIDE] | Not Active | Not Active | Not Active | Not Active |  | 
8 | CC(C)(C)NC[C@H](O)COc1nsnc1N1CCOCC1 [TIMOLOL] |  | Not Active | Not Active | Not Active | Not Active | 
9 | CCN(CC)CC#CCOC(=O)C(O)(c1ccccc1)C1CCCCC1 (centres undefined) [OXYBUTYNIN] | Not Active | Not Active | Not Active | Not Active | Not Active | 
10 | O=c1[nH]c2ccccc2n1CCCN1CCC(n2c(=O)[nH]c3cc(Cl)ccc32)CC1 [DOMPERIDONE] | Not Active | Not Active | Not Active |  | Not Active | IC50 ([4]; read-out: IC50): 285 nM; Ki ([4]; read-out: Ki): 116 nM
11 | CC1=C(CC(=O)O)c2cc(F)ccc2/C1=C\c1ccc(S(C)(=O)=O)cc1 [EXISULIND] | Not Active | Not Active | Not Active | Not Active |  | 
12 | COc1ncnc(NS(=O)(=O)c2ccc(N)cc2)c1OC [SULFADOXINE] | Not Active | Not Active | Not Active | Not Active |  | 
13 | CC(=O)Nc1nnc(S(N)(=O)=O)s1 [ACETAZOLAMIDE] | Not Active | Not Active | Not Active | Not Active | Not Active | 
14 | CO[C@H]1C[C@@H]2CC[C@@H](C)[C@@](O)(O2)C(=O)C(=O)N2CCCC[C@H]2C(=O)O[C@H]([C@H](C)C[C@@H]2CC[C@@H](O)[C@H](OC)C2)CC(=O)[C@H](C)/C=C(\C)[C@@H](O)[C@@H](OC)C(=O)[C@H](C)C[C@H](C)/C=C/C=C/C=C/1C [SIROLIMUS] | Not Active | Not Active | Not Active | Not Active |  | 
15 | OCCN1CCN(CCCN2c3ccccc3Sc3ccc(C(F)(F)F)cc32)CC1 [FLUPHENAZINE] | Not Active | Not Active | Not Active |  | Not Active | IC50 ([4]; read-out: IC50): 24 nM; Ki ([4]; read-out: Ki): 9.58 nM
16 | Cc1cn([C@H]2C[C@H](N=[N+]=[N-])[C@@H](CO)O2)c(=O)[nH]c1=O [ZIDOVUDINE] | Not Active | Not Active | Not Active | Not Active | Not Active | 
17 | THIMEROSAL | Not Active | Not Active | Not Active | Not Active | Not Active | Ki ([1]; cho): Not Active; Ki [2]: Not Active; Ki [5]: Not Active; Ki [3]: Not Active; Ki [4]: Not Active
18 | NC[C@H]1O[C@H](O[C@H]2[C@H](O)[C@@H](O[C@H]3O[C@H](CO)[C@@H](O)[C@H](N)[C@H]3O)[C@H](N)C[C@@H]2N)[C@H](N)C[C@@H]1O [TOBRAMYCIN] | Not Active | Not Active | Not Active | Not Active |  | 
19 | O=P(O)(O)C(O)(Cc1cccnc1)P(=O)(O)O [RISEDRONIC ACID] | Not Active | Not Active | Not Active | Not Active | Not Active | 
20 | Nc1ccc(S(=O)(=O)Nc2nccs2)cc1 [SULFATHIAZOLE] | Not Active | Not Active | Not Active | Not Active | Not Active | 
21 | Nc1ccc(S(=O)(=O)Nc2ncccn2)cc1 [SULFADIAZINE] | Not Active | Not Active | Not Active | Not Active |  | 
22 | CN[C@@H]1[C@H](O)[C@H](NC)[C@H]2O[C@@]3(O)C(=O)C[C@@H](C)O[C@H]3O[C@@H]2[C@H]1O [SPECTINOMYCIN] | Not Active | Not Active | Not Active | Not Active | Not Active | 
23 | COc1cc(N)nc2[nH]c(-c3ccc(F)cc3)c(-c3ccncc3)c12 | Not Active | Not Active | Not Active | Not Active | Not Active | 
24 | CN(CCOc1ccc(CC2SC(=O)NC2=O)cc1)c1ccccn1 (centres undefined) [ROSIGLITAZONE] | Not Active | Not Active | Not Active | Not Active |  | 
25 | O=c1n(CCCN2CCN(c3cccc(Cl)c3)CC2)nc2ccccn12 [TRAZODONE] | Not Active | Not Active | Not Active |  |  | IC50 ([4]; read-out: IC50): 117 nM; Ki ([4]; read-out: Ki): 47 nM
26 | O=C(O)C(Cl)(Cl)Cl [TRICHLOROACETIC ACID] | Not Active | Not Active | Not Active | Not Active |  | 
27 | CCS(=O)(=O)CCn1c([N+](=O)[O-])cnc1C [TINIDAZOLE] | Not Active | Not Active | Not Active | Not Active |  | 
28 | C[C@]12CC[C@H]3[C@@H](CCC4=CC(=O)CC[C@@]43C)[C@@H]1CC[C@@H]2O [TESTOSTERONE] | Not Active | Not Active | Not Active | Not Active |  | 
29 | CN1C2CCCC1CC(NC(=O)c1nn(C)c3ccccc13)C2 (centres undefined) [GRANISETRON] | Not Active | Not Active | Not Active | Not Active |  | 
